Reference: article PMC10006169, “A phase I trial of LXS196, a protein kinase C (PKC) inhibitor, for metastatic uveal melanoma” (British Journal of Cancer, 2023)
“And” between values parts separate entries of the source, which are not always exact repeats. Equal values may be shown once.

Test system: patients with MUM
Experiment: Adverse events suspected to be study drug related (NCI-CTCAE v4.03)
Type: in vivo, human
Details: for Alanine aminotransferase increased / Aspartate aminotransferase increased / Asthenia / Blood creatinine increased / Constipation / Diarrhoea / Dry skin / Fatigue / Hypotension / Nausea / Number of patients with ≥1 adverse event / Rash / Vomiting: suspected drug related
Description: Routine safety assessments, including laboratory assessments, physical examinations, vital signs and electrocardiograms (ECGs), were conducted at regular intervals throughout the study and more frequently as needed following patient assessment by the treating physician. Adverse events (AEs) were assessed continuously according to the National Cancer Institute Common Terminology Criteria for Adverse Events (NCI-CTCAE) v4.03.

[1] = 300 mg BID (RDE), n=18, All grades
[2] = 300 mg BID (RDE), n=18, Grade ≥3
[3] = All LXS196 BID patients, n=30, All grades
[4] = All LXS196 BID patients, n=30, Grade ≥3
[5] = All LXS196 patients, N=68, All grades
[6] = All LXS196 patients, N=68, Grade ≥3

## CC1(N)CCN(c2cccnc2NC(=O)c2nc(-c3ncccc3C(F)(F)F)cnc2N)CC1 [LXS196]
All BID
  Dry skin, all grades: 6 (20.0) n (%)
  Dry skin, grade ≥3: 0 n (%)
  Fatigue, all grades: 4 (13.3) n (%)
  Fatigue, grade ≥3: 0 n (%)
  Hypotension, all grades: 7 (23.3) n (%)
  Nausea, all grades: 19 (63.3) n (%)
  Nausea, grade ≥3: 0 n (%)
  Patients with ≥1 AE, all grades: 28 (93.3) n (%)
  Patients with ≥1 AE, grade ≥3: 6 (20.0) n (%)
  Rash, all grades: 5 (16.7) n (%)
  Rash, grade ≥3: 0 n (%)
  Vomiting, all grades: 9 (30.0) n (%)
  Vomiting, grade ≥3: 0 n (%)
All QD
  ALT increased, all grades: 7 (18.4) n (%)
  ALT increased, grade ≥3: 2 (5.3) n (%)
  AST increased, all grades: 5 (13.2) n (%)
  AST increased, grade ≥3: 2 (5.3) n (%)
  Asthenia, all grades: 6 (15.8) n (%)
  Asthenia, grade ≥3: 0 n (%)
  Blood creatinine increased, all grades: 2 (5.3) n (%)
  Blood creatinine increased, grade ≥3: 0 n (%)
  Constipation, all grades: 4 (10.5) n (%)
  Constipation, grade ≥3: 0 n (%)
  Diarrhoea, all grades: 15 (39.5) n (%)
  Diarrhoea, grade ≥3: 0 n (%)
  Dry skin, all grades: 2 (5.3) n (%)
  Dry skin, grade ≥3: 0 n (%)
  Fatigue, all grades: 10 (26.3) n (%)
  Fatigue, grade ≥3: 0 n (%)
  Hypotension, all grades: 8 (21.1) n (%)
  Nausea, all grades: 26 (68.4) n (%)
  Nausea, grade ≥3: 1 (2.6) n (%)
  Patients with ≥1 AE, all grades: 35 (92.1) n (%)
  Patients with ≥1 AE, grade ≥3: 11 (28.9) n (%)
  Rash, all grades: 3 (7.9) n (%)
  Rash, grade ≥3: 0 n (%)
  Vomiting, all grades: 12 (31.6) n (%)
  Vomiting, grade ≥3: 1 (2.6) n (%)
All patients
  ALT increased, all grades: 15 (22.1) n (%)
  ALT increased, grade ≥3: 4 (5.9) n (%)
  AST increased, all grades: 11 (16.2) n (%)
  AST increased, grade ≥3: 4 (5.9) n (%)
  Asthenia, all grades: 13 (19.1) n (%)
  Asthenia, grade ≥3: 0 n (%)
  Blood creatinine increased, all grades: 7 (10.3) n (%)
  Blood creatinine increased, grade ≥3: 0 n (%)
  Constipation, all grades: 7 (10.3) n (%)
  Constipation, grade ≥3: 0 n (%)
  Diarrhoea, all grades: 31 (45.6) n (%)
  Diarrhoea, grade ≥3: 1 (1.5) n (%)
  Dry skin, all grades: 8 (11.8) n (%)
  Dry skin, grade ≥3: 0 n (%)
  Fatigue, all grades: 14 (20.6) n (%)
  Fatigue, grade ≥3: 0 n (%)
  Hypotension, all grades: 15 (22.1) n (%)
  Hypotension, grade ≥3: 6 (8.8) n (%)
  Nausea, all grades: 45 (66.2) n (%)
  Nausea, grade ≥3: 1 (1.5) n (%)
  Patients with ≥1 AE, all grades: 63 (92.6%) n (%) and 63 (92.6) n (%)
  Patients with ≥1 AE, grade ≥3: 17 (25.0%) n (%) and 17 (25.0) n (%)
  Rash, all grades: 8 (11.8) n (%)
  Rash, grade ≥3: 0 n (%)
  Vomiting, all grades: 21 (30.9) n (%)
  Vomiting, grade ≥3: 1 (1.5) n (%)
200 mg BID, n=6, All grades
  Alanine aminotransferase increased: 0 n (%)
  Aspartate aminotransferase increased: 0 n (%)
  Asthenia: 1 (16.7) n (%)
  Blood creatinine increased: 3 (50.0) n (%)
  Constipation: 0 n (%)
  Diarrhoea: 2 (33.3) n (%)
  Dry skin: 1 (16.7) n (%)
  Fatigue: 0 n (%)
  Hypotension: 0 n (%)
  Nausea: 2 (33.3) n (%)
  Number of patients with ≥1 adverse event: 5 (83.3) n (%)
  Rash: 0 n (%)
  Vomiting: 0 n (%)
200 mg BID, n=6, Grade ≥3
  Alanine aminotransferase increased: 0 n (%)
  Aspartate aminotransferase increased: 0 n (%)
  Asthenia: 0 n (%)
  Blood creatinine increased: 0 n (%)
  Constipation: 0 n (%)
  Diarrhoea: 0 n (%)
  Dry skin: 0 n (%)
  Fatigue: 0 n (%)
  Hypotension: 0 n (%)
  Nausea: 0 n (%)
  Number of patients with ≥1 adverse event: 0 n (%)
  Rash: 0 n (%)
  Vomiting: 0 n (%)
[1]
  Alanine aminotransferase increased: 5 (27.8) n (%)
  Aspartate aminotransferase increased: 3 (16.7) n (%)
  Asthenia: 4 (22.2) n (%)
  Blood creatinine increased: 2 (11.1) n (%)
  Constipation: 1 (5.6) n (%)
  Diarrhoea: 11 (61.1) n (%)
  Dry skin: 4 (22.2) n (%)
  Fatigue: 3 (16.7) n (%)
  Hypotension: 3 (16.7) n (%)
  Nausea: 14 (77.8) n (%)
  Number of patients with ≥1 adverse event: 17 (94.4) n (%)
  Rash: 4 (22.2) n (%)
  Vomiting: 7 (38.9) n (%)
[2]
  Alanine aminotransferase increased: 1 (5.6) n (%)
  Aspartate aminotransferase increased: 1 (5.6) n (%)
  Asthenia: 0 n (%)
  Blood creatinine increased: 0 n (%)
  Constipation: 0 n (%)
  Diarrhoea: 1 (5.6) n (%)
  Dry skin: 0 n (%)
  Fatigue: 0 n (%)
  Hypotension: 0 n (%)
  Nausea: 0 n (%)
  Number of patients with ≥1 adverse event: 2 (11.1) n (%)
  Rash: 0 n (%)
  Vomiting: 0 n (%)
400 mg BID, n=6, All grades
  Alanine aminotransferase increased: 3 (50.0) n (%)
  Aspartate aminotransferase increased: 3 (50.0) n (%)
  Asthenia: 2 (33.3) n (%)
  Blood creatinine increased: 0 n (%)
  Constipation: 2 (33.3) n (%)
  Diarrhoea: 3 (50.0) n (%)
  Dry skin: 1 (16.7) n (%)
  Fatigue: 1 (16.7) n (%)
  Hypotension: 4 (66.7) n (%)
  Nausea: 3 (50.0) n (%)
  Number of patients with ≥1 adverse event: 6 (100) n (%)
  Rash: 1 (16.7) n (%)
  Vomiting: 2 (33.3) n (%)
400 mg BID, n=6, Grade ≥3
  Alanine aminotransferase increased: 1 (16.7) n (%)
  Aspartate aminotransferase increased: 1 (16.7) n (%)
  Asthenia: 0 n (%)
  Blood creatinine increased: 0 n (%)
  Constipation: 0 n (%)
  Diarrhoea: 0 n (%)
  Dry skin: 0 n (%)
  Fatigue: 0 n (%)
  Hypotension: 1 (16.7) n (%)
  Nausea: 0 n (%)
  Number of patients with ≥1 adverse event: 4 (66.7) n (%)
  Rash: 0 n (%)
  Vomiting: 0 n (%)
[3]
  Alanine aminotransferase increased: 8 (26.7) n (%)
  Aspartate aminotransferase increased: 6 (20.0) n (%)
  Asthenia: 7 (23.3) n (%)
  Blood creatinine increased: 5 (16.7) n (%)
  Constipation: 3 (10.0) n (%)
  Diarrhoea: 16 (53.3) n (%)
  Dry skin: 6 (20.0) n (%)
  Fatigue: 4 (13.3) n (%)
  Hypotension: 7 (23.3) n (%)
  Nausea: 19 (63.3) n (%)
  Number of patients with ≥1 adverse event: 28 (93.3) n (%)
  Rash: 5 (16.7) n (%)
  Vomiting: 9 (30.0) n (%)
[4]
  Alanine aminotransferase increased: 2 (6.7) n (%)
  Aspartate aminotransferase increased: 2 (6.7) n (%)
  Asthenia: 0 n (%)
  Blood creatinine increased: 0 n (%)
  Constipation: 0 n (%)
  Diarrhoea: 1 (3.3) n (%)
  Dry skin: 0 n (%)
  Fatigue: 0 n (%)
  Hypotension: 1 (3.3) n (%)
  Nausea: 0 n (%)
  Number of patients with ≥1 adverse event: 6 (20.0) n (%)
  Rash: 0 n (%)
  Vomiting: 0 n (%)
[5]
  Alanine aminotransferase increased: 15 (22.1) n (%)
  Aspartate aminotransferase increased: 11 (16.2) n (%)
  Asthenia: 13 (19.1) n (%)
  Blood creatinine increased: 7 (10.3) n (%)
  Constipation: 7 (10.3) n (%)
  Diarrhoea: 31 (45.6) n (%)
  Dry skin: 8 (11.8) n (%)
  Fatigue: 14 (20.6) n (%)
  Hypotension: 15 (22.1) n (%)
  Nausea: 45 (66.2) n (%)
  Number of patients with ≥1 adverse event: 63 (92.6) n (%)
  Rash: 8 (11.8) n (%)
  Vomiting: 21 (30.9) n (%)
[6]
  Alanine aminotransferase increased: 4 (5.9) n (%)
  Aspartate aminotransferase increased: 4 (5.9) n (%)
  Asthenia: 0 n (%)
  Blood creatinine increased: 0 n (%)
  Constipation: 0 n (%)
  Diarrhoea: 1 (1.5) n (%)
  Dry skin: 0 n (%)
  Fatigue: 0 n (%)
  Hypotension: 6 (8.8) n (%)
  Nausea: 1 (1.5) n (%)
  Number of patients with ≥1 adverse event: 17 (25.0) n (%)
  Rash: 0 n (%)
  Vomiting: 1 (1.5) n (%)
